Columns and labels:
[1] = test system: K18/Y310W; assay: Tryptophan fluorescence inhibition assay, K18/Y310W; format: biochemical, human; details: 60 μM compound
Text: (§1) In order to exclude a possible distortion of the data by the dye the results of the ThS assays can be confirmed by a tryptophan fluorescence assay (Li et al., 2002). It allows the detection of the molecular environment of a tryptophan introduced instead of tyrosine 310 whose emission maximum is sensitive to the burial in a more hydrophobic surrounding upon PHF formation. Therefore the mutants K19/Y310W (FIG. 1I) and K18/Y310W (FIG. 1H) that contain a single tryptophan within the core of the PHF structure were created. In the soluble protein the emission maximum lies at ˜354 nm, whereas it shifts to 340 nm upon PHF formation (FIG. 3A, compare first and second entry). The emission peak can be shifted back by incubation at high concentrations of GuHCl which is due to the disassembly of the PHFs (FIG. 3A, fourth entry).
(§2) The fluorescence experiments were performed on a Spex Fluoromax spectrophotometer (Polytec, Waldbronn, Germany) using 3 mm×3 mm micro cuvettes from Hellma (Mühlheim, Germany) with 20 μl sample volumes. A tryptophan emission spectrum scans from 300 to 450 nm at fixed excitation wavelength of 290 nm. The slit widths were 5 nm, the integration time was 0.25 second, and the photomultiplier voltage was 950 V. For fluorescence inhibition assay, 60 μM compounds were incubated with K19/Y310W construct (10 μM) or K18/ΔK280/Y310W and heparin (2.5 μM) in PBS, pH 7.4 three days at 37° C.
In the Trp fluorescence assay the inhibition of PHF assembly becomes apparent if the emission maximum of Trp310 remains higher than that of the control without any compound, because Trp310 remains in a more solvent-accessible hydrophilic environment. The three repeat tau construct K19 (at 10 μM) was prevented from polymerisation by about 90% by the presence of all compounds at a concentration, of 60 μM (FIG. 3A, note that entries 5-9 retain their values around 354 nm, similar to the control #1). […] The internal ranking stays roughly the same as with K18; PHF005 (#9) is the best, PHF016 (#8) the worst inhibitor. […] The apparent degrees of inhibition differ somewhat between the ThS fluorescence and the intrinsic Trp fluorescence assays, but this may be due to the different origins of the signal. In the ThS assay the dye has to bind to the filaments, which requires a minimal length of the fibres. The tryptophan fluorescence assay depends on the local surrounding of the residue and is therefore less dependent on the length of the filaments.
(A-C) fluorescence emission maximum of the single tryptophan W310 inserted by site-directed mutagenesis into tau constructs K19 (FIG. 3A), K18 (FIG. 3B) and K18/ΔK280 (FIG. 3C). Fully solvent-accessible Trp has an emission maximum at ˜355 nm, a blue-shift to lower wavelengths is an indicator of PHF aggregation. […]

[2] = test system: N2a cells expressing K18/ΔK280; assay: Tau aggregation in cells, thioflavine S staining; format: cell-based, mouse; details: 15 μM emodin
Procedure: The tau construct K18/ΔK280 was expressed in the mouse neuroblastoma cell line N2a in an inducible manner under the control of the reverse tetracycline-controlled transactivator (rtTA) as described elsewhere (Gossen & Bujard, 2002). The inducible N2a/K18ΔK280 cells were cultured in MEM medium supplemented with 10% fetal calf serum, 2 mM glutamine and 0.1% nonessential amino acids. The expression of K18/ΔK280 was induced by addition 1 μg doxycyclin per 1 ml medium. The effect of aggregation inhibition was observed by adding the inhibitor emodin (15 μM). After 3-7 days the cells were harvested and tested for tau aggregation, thioflavin S fluorescence, and viability.
The levels and solubility of the K18/ΔK280 tau protein were determined by the method of Greenberg and Davies (1990) which makes use of the insolubility of protein aggregates after treatment with sarkosyl. The supernatant and sarcosyl-insoluble pellets were analysed by Western blotting with the pan-tau antibody K9JA and analysed by densitometry. Aggregation of tau in cells was tested by the fluorescence of thioflavine S. ThS signals were scored in three independent fields containing 40 cells each.
Two parallel cell cultures were incubated, one with 1 μg/ml doxycyclin (to induce the expression of the protein), another with 1 μg/ml doxycyclin and 15 μM emodin for 3 days. […]

[3] = molecular target: T1, K19 PHFs (Homo sapiens, UniProt P10636); assay: Depolymerisation of K19 PHFs at prolonged incubation times; format: biochemical; details: 0.5 μM compound, after 12 hours
T1 construct: construct K19 containing three repeats; made in house; host or cells: E. coli
T1 sequence (P10636 with tags, fused parts or gaps isoform P10636-2 limits assumed): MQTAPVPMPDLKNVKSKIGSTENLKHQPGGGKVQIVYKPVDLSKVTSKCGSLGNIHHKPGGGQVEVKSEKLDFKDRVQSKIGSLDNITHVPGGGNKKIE
Procedure: Untreated controls were measured in parallel and subtracted as background.

[4] = test system: K18 filaments (Y310W); assay: Tryptophan fluorescence depolymerisation assay, K18 filaments; format: biochemical, human; details: 60 μM compound
Procedure: For the fluorescence depolymerisation assay, 60 μM inhibitor compound were added to pre-formed PHFs (10 μM) and incubated overnight at 37° C. PHFs were formed by incubation of tau construct K19/Y310W (50 μM) or K18/ΔK280/Y310W with 12.5 μM heparin in volume of 100 μl at 37° C. in PBS, pH 7.4. Incubation time was three days. The formation of aggregates was observed as a shift of the emission maximum from ˜354 nm to ˜340 nm.
All other compounds yielded emission maxima of the protein after treatment around 350-353 nm, close to the value of soluble tau, indicating a depolymerisation efficiency of about 80-90%.
FIG. 5: Disassembly of preformed PHFs measured by tryptophan fluorescence shift assay and filter assay. Experiments were performed with tau constructs containing the Y310W mutation as in FIG. 3.

[5] = test system: K18/ΔK280/Y310W; assay: Tryptophan fluorescence inhibition assay, K18/ΔK280/Y310W; format: biochemical, human; details: 60 μM compound
Text: as §1, with “The emission peak can be shifted back by incubation at high concentrations of GuHCl which is due to the disassembly of the PHFs (FIG. 3A, fourth entry).” left out
as §2, with “A tryptophan emission spectrum scans from 300 to 450 nm at fixed excitation wavelength of 290 nm.” left out, “C. […]” for “C.”
(A-C) fluorescence emission maximum of the single tryptophan W310 inserted by site-directed mutagenesis into tau constructs K19 (FIG. 3A), K18 (FIG. 3B) and K18/ΔK280 (FIG. 3C). […]

## COc1cccc2c1C(=O)c1c(O)c3c(c(O)c1C2=O)CC(O)(C(=O)CO)CC3OC1CC(N)C(O)C(C)O1 (stereo not shown) [Adriamycin, 10-(4-Amino-5-hydroxy-6-methyl-tetrahydro-pyran-2-yloxy)-6,8,11-trihydroxy-8-(2-hydroxyethanoyl)-1-methoxy-7,8,9,10-tetrahydro-naphthacene-5,12-dione, reference compound]
[1]
  inhibition of PHF formation, K18/Y310W, Trp fluorescence: about 70%

## COc1cccc2c1C(=O)c1c(O)c3c(c(O)c1C2=O)CC(O)(C(C)=O)CC3OC1CC(N)C(O)C(C)O1 (stereo not shown) [Daunorubicin, 8-Acetyl-10-(4-amino-5-hydroxy-6-methyl-tetrahydro-pyran-2-yloxy)-6,8,11-trihydroxy-1-methoxy-7,8,9,10-tetrahydro-naphthacene-5,12-dione, reference compound]
[1]
  inhibition of PHF formation, K18/Y310W, Trp fluorescence: about 70%

## Cc1cc(O)c2c(c1)C(=O)c1cc(O)cc(O)c1C2=O [Emodin, 1,3,8-Trihydroxy-6-methyl-anthraquinone]
[1]
  inhibition of PHF formation, K18/Y310W, Trp fluorescence: about 70%
[2]
  inhibition of aggregation as measured by ThS: about 2 fold
[2]; 3 days induction, without emodin 28%
  cells with ThS signal: 15%

## O=C(c1ccccc1)c1ccc(O)c(O)c1O [PHF005, 1-Phenyl-1-(2,3,4-trihydroxy-phenyl)-methanone]
[3]
  depolymerisation of K19 PHFs: Nearly no effects
[4]
  depolymerisation efficiency, K18 filaments, Trp fluorescence: 80%
[5]
  ranking as inhibitor, K18/ΔK280, Trp fluorescence: best

## O=C1c2ccc(O)c(O)c2C(=O)c2c(O)ccc(O)c21 [PHF016, 1,2,5,8-Tetrahydroxy-anthraquinone]
[1]
  inhibition of PHF formation, K18/Y310W, Trp fluorescence: 25%
[5]
  ranking as inhibitor, K18/ΔK280, Trp fluorescence: worst

Source: patent US20060223812A1, “Treating neurodegenerative conditions” (MAX-PLANCK-GESELLSCHAFT ZUR FORDERUNGDER WISSENSCHAFTEN, …, priority 2004, published 2006)
